This note sets out measurements from BindingDB's records for doi:10.1016/S0960-894X(97)00207-2 (1997).

Each structure is given as a SMILES string. pIC50: −log10 of the molar value.

In the assay the target is Beta-2 adrenergic receptor (Cavia porcellus) (UniProt Q8K4Z4). The experiment in a line: Tested for beta-2-adrenergic blocking effect by measuring the ability to inhibit the relaxing effect of epinephrine on the isolated tracheal muscle of guinea pigs.
Beta-2 adrenergic receptor (Cavia porcellus), sequence (Q8K4Z4 whole entry, looked up): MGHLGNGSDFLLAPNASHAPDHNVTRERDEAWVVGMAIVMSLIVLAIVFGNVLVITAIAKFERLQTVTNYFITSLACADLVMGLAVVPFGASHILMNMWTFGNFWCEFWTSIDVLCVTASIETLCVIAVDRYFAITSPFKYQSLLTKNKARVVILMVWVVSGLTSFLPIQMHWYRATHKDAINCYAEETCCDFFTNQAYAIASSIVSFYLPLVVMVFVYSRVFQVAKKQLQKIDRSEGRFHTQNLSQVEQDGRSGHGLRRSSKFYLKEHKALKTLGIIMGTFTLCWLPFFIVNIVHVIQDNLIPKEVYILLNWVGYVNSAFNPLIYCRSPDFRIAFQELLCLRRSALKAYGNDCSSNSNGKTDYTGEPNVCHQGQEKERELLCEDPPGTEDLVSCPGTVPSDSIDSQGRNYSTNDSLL

On to `COCCc1ccc(OC(F)(F)[C@@H](O)CNC(C)C)cc1` [(S)-1,1-Difluoro-3-isopropylamino-1-[4-(2-methoxy-ethyl)-phenoxy]-propan-2-ol], for which the pIC50 is 5.67.

What is called pIC50 is the negative decadic logarithm of the IC50, by convention in mol/L. A high value points to a small IC50.
